Laboratory results published in PubChem BioAssay (NCI).
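Cells were grown in 96-well plates and exposed to each compound for 48 hours at five concentrations; endpoints were interpolated linearly between bracketing concentrations, or set to the highest concentration if not reached. Definition used: TGI = concentration required for complete inhibition of growth.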

Experiments:
Assay in all cases: NCI anticancer screen, dose series, 48 h
SR leukemia = system: SR leukemia
HT29 colon = system: HT29 colon
SK-OV-3 ovarian = system: SK-OV-3 ovarian
M14 melanoma = system: M14 melanoma
SNB-75 CNS = system: SNB-75 CNS
MALME-3M melanoma = system: MALME-3M melanoma
CCRF-CEM leukemia = system: CCRF-CEM leukemia
HS 578T breast = system: HS 578T breast
U251 CNS = system: U251 CNS
NCI-H226 lung = system: NCI-H226 lung
HCC-2998 colon = system: HCC-2998 colon
786-0 renal = system: 786-0 renal
BT-549 breast = system: BT-549 breast
SW-620 colon = system: SW-620 colon
HOP-92 NSCLC = system: HOP-92 NSCLC
IGROV1 ovarian = system: IGROV1 ovarian
KM12 colon = system: KM12 colon
SF-295 CNS = system: SF-295 CNS
MOLT-4 leukemia = system: MOLT-4 leukemia
HCT-116 colon = system: HCT-116 colon
NCI-H522 lung = system: NCI-H522 lung
A549 NSCLC = system: A549 NSCLC
EKVX NSCLC = system: EKVX NSCLC
OVCAR-5 ovarian = system: OVCAR-5 ovarian
SK-MEL-28 melanoma = system: SK-MEL-28 melanoma
RPMI-8226 leukemia = system: RPMI-8226 leukemia
MCF7 breast = system: MCF7 breast
OVCAR-8 ovarian = system: OVCAR-8 ovarian
TK-10 renal = system: TK-10 renal
COLO 205 colon = system: COLO 205 colon
LOX IMVI melanoma = system: LOX IMVI melanoma
OVCAR-3 ovarian = system: OVCAR-3 ovarian
RXF 393 renal = system: RXF 393 renal
ACHN renal = system: ACHN renal
SK-MEL-2 melanoma = system: SK-MEL-2 melanoma
CAKI-1 renal = system: CAKI-1 renal
HOP-62 NSCLC = system: HOP-62 NSCLC
A498 renal = system: A498 renal
DU-145 prostate = system: DU-145 prostate
UACC-257 melanoma = system: UACC-257 melanoma
NCI-H460 lung = system: NCI-H460 lung
MDA-MB-435 = system: MDA-MB-435
OVCAR-4 ovarian = system: OVCAR-4 ovarian
SNB-19 CNS = system: SNB-19 CNS
NCI-H23 lung = system: NCI-H23 lung
SK-MEL-5 melanoma = system: SK-MEL-5 melanoma
UO-31 renal = system: UO-31 renal
SF-268 CNS = system: SF-268 CNS
MDA-MB-231 breast = system: MDA-MB-231 breast
SN12C renal = system: SN12C renal
PC-3 prostate = system: PC-3 prostate
NCI/ADR-RES ovarian = system: NCI/ADR-RES ovarian
K-562 leukemia = system: K-562 leukemia
MDA-N = system: MDA-N
T-47D breast = system: T-47D breast
HCT-15 colon = system: HCT-15 colon
UACC-62 melanoma = system: UACC-62 melanoma
SF-539 CNS = system: SF-539 CNS
HL-60(TB) leukemia = system: HL-60(TB) leukemia

CCc1ccc2[nH]c(O)c(C3=Nc4ccccc4C3=O)c2c1
TGI (SR leukemia): 37.8 µM
TGI (HT29 colon): > 100 µM
TGI (SK-OV-3 ovarian): 41.5 µM
TGI (M14 melanoma): > 100 µM
TGI (SNB-75 CNS): 91.4 µM
TGI (MALME-3M melanoma): > 100 µM
TGI (CCRF-CEM leukemia): > 100 µM
TGI (HS 578T breast): > 100 µM
TGI (U251 CNS): 38.2 µM
TGI (NCI-H226 lung): > 100 µM
TGI (HCC-2998 colon): 53.2 µM
TGI (786-0 renal): 19 µM
TGI (BT-549 breast): 72.8 µM
TGI (SW-620 colon): > 100 µM
TGI (HOP-92 NSCLC): > 100 µM
TGI (IGROV1 ovarian): 20.1 µM
TGI (KM12 colon): > 100 µM
TGI (SF-295 CNS): 61.2 µM
TGI (MOLT-4 leukemia): 64.2 µM
TGI (HCT-116 colon): 35.4 µM
TGI (NCI-H522 lung): 75.2 µM
TGI (A549 NSCLC): 59.7 µM
TGI (EKVX NSCLC): 24.2 µM
TGI (OVCAR-5 ovarian): > 100 µM
TGI (SK-MEL-28 melanoma): > 100 µM
TGI (RPMI-8226 leukemia): > 100 µM
TGI (MCF7 breast): 10.9 µM
TGI (OVCAR-8 ovarian): 57 µM
TGI (TK-10 renal): 37 µM
TGI (COLO 205 colon): > 100 µM
TGI (LOX IMVI melanoma): > 100 µM
TGI (OVCAR-3 ovarian): 51.8 µM
TGI (RXF 393 renal): 51.4 µM
TGI (ACHN renal): 24.8 µM
TGI (SK-MEL-2 melanoma): 43.7 µM
TGI (CAKI-1 renal): > 100 µM
TGI (HOP-62 NSCLC): 41.4 µM
TGI (A498 renal): 18.2 µM
TGI (DU-145 prostate): > 100 µM
TGI (UACC-257 melanoma): > 100 µM
TGI (NCI-H460 lung): > 100 µM
TGI (MDA-MB-435): > 100 µM
TGI (OVCAR-4 ovarian): 61.3 µM
TGI (SNB-19 CNS): 31.2 µM
TGI (NCI-H23 lung): > 100 µM
TGI (SK-MEL-5 melanoma): 33.4 µM
TGI (UO-31 renal): 37.9 µM
TGI (SF-268 CNS): 90.6 µM
TGI (MDA-MB-231 breast): > 100 µM
TGI (SN12C renal): > 100 µM
TGI (PC-3 prostate): 50.1 µM
TGI (NCI/ADR-RES ovarian): > 100 µM
TGI (K-562 leukemia): > 100 µM
TGI (MDA-N): > 100 µM
TGI (T-47D breast): 77.5 µM
TGI (HCT-15 colon): > 100 µM
TGI (UACC-62 melanoma): 43.3 µM

COc1ccc2c(c1)CN([C@@H](C)[C@H]1CC[C@H]3[C@@H]4CC[C@H]5C[C@@H](O)CC[C@]5(C)[C@H]4CC[C@]13C)CO2
TGI (SR leukemia): 2.61 µM
TGI (HT29 colon): 3.63 µM
TGI (SK-OV-3 ovarian): 3.56 µM
TGI (M14 melanoma): 3.54 µM
TGI (SNB-75 CNS): 4.94 µM
TGI (MALME-3M melanoma): 3.47 µM
TGI (CCRF-CEM leukemia): 6.19 µM
TGI (HS 578T breast): 4.14 µM
TGI (U251 CNS): 3.35 µM
TGI (NCI-H226 lung): 24.3 µM
TGI (HCC-2998 colon): 3.01 µM
TGI (786-0 renal): 2.7 µM
TGI (BT-549 breast): 14.4 µM
TGI (SW-620 colon): > 23.6 µM
TGI (HOP-92 NSCLC): 3.71 µM
TGI (IGROV1 ovarian): 14.6 µM
TGI (SF-539 CNS): 3.33 µM
TGI (KM12 colon): 4.31 µM
TGI (SF-295 CNS): 2.98 µM
TGI (MOLT-4 leukemia): 2.98 µM
TGI (HCT-116 colon): 7.22 µM
TGI (NCI-H522 lung): 4.21 µM
TGI (A549 NSCLC): 4.51 µM
TGI (EKVX NSCLC): 14.7 µM
TGI (OVCAR-5 ovarian): 13.5 µM
TGI (SK-MEL-28 melanoma): 5.98 µM
TGI (RPMI-8226 leukemia): 1.97 µM
TGI (MCF7 breast): 11.8 µM
TGI (OVCAR-8 ovarian): > 24.1 µM
TGI (TK-10 renal): 8.32 µM
TGI (HL-60(TB) leukemia): 5.91 µM
TGI (COLO 205 colon): 3.85 µM
TGI (OVCAR-3 ovarian): 18 µM
TGI (RXF 393 renal): 2.74 µM
TGI (ACHN renal): 11.2 µM
TGI (SK-MEL-2 melanoma): 3.83 µM
TGI (CAKI-1 renal): 13.8 µM
TGI (HOP-62 NSCLC): 4 µM
TGI (A498 renal): 3.45 µM
TGI (DU-145 prostate): 13.7 µM
TGI (UACC-257 melanoma): 6.31 µM
TGI (NCI-H460 lung): 2.47 µM
TGI (MDA-MB-435): 3.48 µM
TGI (OVCAR-4 ovarian): 17.8 µM
TGI (SNB-19 CNS): 4.1 µM
TGI (NCI-H23 lung): 5.12 µM
TGI (SK-MEL-5 melanoma): 3.28 µM
TGI (UO-31 renal): 3.39 µM
TGI (SF-268 CNS): 7.38 µM
TGI (MDA-MB-231 breast): 5.19 µM
TGI (SN12C renal): 22.6 µM
TGI (PC-3 prostate): 7.46 µM
TGI (NCI/ADR-RES ovarian): 18.6 µM
TGI (K-562 leukemia): 2.37 µM
TGI (MDA-N): 3.38 µM
TGI (T-47D breast): 18.3 µM
TGI (HCT-15 colon): 3.75 µM
TGI (UACC-62 melanoma): 3.88 µM

COc1ccc(/C=C2\C[C@H]3[C@@H]4CCC5=C/C(=N/O)CC[C@]5(C)[C@H]4CC[C@]3(C)\C2=N\O)cc1
TGI (SR leukemia): 86 µM
TGI (HT29 colon): 45.3 µM
TGI (SK-OV-3 ovarian): > 100 µM
TGI (M14 melanoma): 57.7 µM
TGI (SNB-75 CNS): > 100 µM
TGI (MALME-3M melanoma): > 100 µM
TGI (HS 578T breast): > 100 µM
TGI (U251 CNS): > 100 µM
TGI (NCI-H226 lung): 95.4 µM
TGI (HCC-2998 colon): 49.7 µM
TGI (786-0 renal): > 100 µM
TGI (BT-549 breast): 53.7 µM
TGI (SW-620 colon): > 100 µM
TGI (HOP-92 NSCLC): > 100 µM
TGI (IGROV1 ovarian): > 100 µM
TGI (KM12 colon): > 100 µM
TGI (SF-295 CNS): > 100 µM
TGI (MOLT-4 leukemia): > 100 µM
TGI (HCT-116 colon): > 100 µM
TGI (NCI-H522 lung): 91.7 µM
TGI (A549 NSCLC): > 100 µM
TGI (EKVX NSCLC): > 100 µM
TGI (OVCAR-5 ovarian): > 100 µM
TGI (SK-MEL-28 melanoma): > 100 µM
TGI (RPMI-8226 leukemia): 93.5 µM
TGI (MCF7 breast): 88.5 µM
TGI (OVCAR-8 ovarian): > 100 µM
TGI (TK-10 renal): > 100 µM
TGI (COLO 205 colon): 43.9 µM
TGI (LOX IMVI melanoma): > 100 µM
TGI (OVCAR-3 ovarian): > 100 µM
TGI (RXF 393 renal): 98.8 µM
TGI (ACHN renal): 98.3 µM
TGI (SK-MEL-2 melanoma): 72.4 µM
TGI (CAKI-1 renal): > 100 µM
TGI (HOP-62 NSCLC): > 100 µM
TGI (DU-145 prostate): > 100 µM
TGI (UACC-257 melanoma): > 100 µM
TGI (NCI-H460 lung): > 100 µM
TGI (MDA-MB-435): > 100 µM
TGI (OVCAR-4 ovarian): > 100 µM
TGI (SNB-19 CNS): > 100 µM
TGI (NCI-H23 lung): > 100 µM
TGI (SK-MEL-5 melanoma): 25.9 µM
TGI (UO-31 renal): 57.5 µM
TGI (SF-268 CNS): > 100 µM
TGI (MDA-MB-231 breast): > 100 µM
TGI (SN12C renal): > 100 µM
TGI (PC-3 prostate): > 100 µM
TGI (NCI/ADR-RES ovarian): > 100 µM
TGI (K-562 leukemia): > 100 µM
TGI (MDA-N): > 100 µM
TGI (T-47D breast): > 100 µM
TGI (HCT-15 colon): > 100 µM
TGI (UACC-62 melanoma): > 100 µM
